# Laboratory results as given in patent publication US20260234295A1, “ULTRALOW MOLECULAR WEIGHT HEPARIN” (The University of North Carolina at Chapel Hill, priority 2022, published 2026).
# Values joined by “and” are separate entries in the source; they are usually repeats but may differ in a detail not shown here. Identical values can stand only once.
# Key:
# Human FXa (Homo sapiens) = system: T1, Human FXa (Homo sapiens); assay: Anti-FXa activity, chromogenic substrate S-2765 with antithrombin; assay type: biochemical; details: for anti-FXa activity after incubation with heparanase: after heparanase digestion, digested byproduct; for IC50: human FXa, antithrombin, S-2765, read-out: anti-FXa activity, calculated IC50 (converted)
# T1 construct: Human FXa (Enzyme Research Laboratories, South Bend, Indiana, United States of America); purchased Enzyme Research Laboratories
# Method: Human FXa (Enzyme Research Laboratories, South Bend, Indiana, United States of America) was diluted in phosphate buffered saline (PBS) to 50 U/mL. Antithrombin was diluted to 0.03 mg/mL in PBS with 1 mg/mL of bovine serum albumin (BSA). The chromogenic substrate, S-2765 (Diapharma, Westchester, Ohio, United States of America) was diluted to 1 mg/mL in water. Heparin oligosaccharides were dissolved in PBS at various concentrations (7 to 3600 ng/mL). A reaction mixture including 60 μL of antithrombin and 24 μL of a solution containing a heparin oligosaccharide was incubated at room temperature for 3 min. FXa (100 μL) was then added, which was followed after a 2 min incubation at room temperature by the addition of 30 μL of chromogenic substrate, S-2765. The absorbance of the mixture was measured at 405 nm for 5 min and plotted against reaction time. The initial reaction rate as a function of oligosaccharide concentration was used to calculate IC50.
# Recombinant heparanase = biological target: T2, Recombinant heparanase (Homo sapiens, UniProt Q9Y251); assay: Incubation of heparin oligosaccharides with recombinant heparanase, HPLC and LC-MS analysis; assay type: in vitro ADME; details: overnight incubation with heparanase, 37° C., pH 6.0
# T2 construct: made in house; host or cells: insect cells (baculovirus expression system)
# T2 sequence (Q9Y251 158-543 limits assumed): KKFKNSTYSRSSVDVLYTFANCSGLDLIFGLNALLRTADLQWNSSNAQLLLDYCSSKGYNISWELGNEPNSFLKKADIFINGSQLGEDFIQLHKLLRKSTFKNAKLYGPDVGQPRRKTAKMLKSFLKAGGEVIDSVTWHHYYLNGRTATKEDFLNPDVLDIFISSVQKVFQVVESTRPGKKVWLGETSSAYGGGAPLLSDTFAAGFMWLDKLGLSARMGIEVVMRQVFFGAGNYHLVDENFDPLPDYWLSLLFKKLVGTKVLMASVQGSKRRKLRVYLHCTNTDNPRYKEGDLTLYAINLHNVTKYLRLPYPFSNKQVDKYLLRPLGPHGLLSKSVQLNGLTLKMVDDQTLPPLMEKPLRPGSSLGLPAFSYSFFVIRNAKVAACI
# T2 sequence (Q9Y251 36-109 limits assumed): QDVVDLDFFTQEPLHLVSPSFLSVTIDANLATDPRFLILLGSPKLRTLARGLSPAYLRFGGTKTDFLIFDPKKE
# Method: Recombinant heparanase was expressed in insect cells using the baculovirus expression system and purified by a heparin-Sepharose column, as previously described (40). Heparin oligosaccharides, HS 6-mer (20 μg) or HR 7-mer (20 μg), were incubated overnight at 37° C. in 250 μL of MES (50 mM, pH 6.0) in the presence of heparanase (2 μg for 1× heparanase digestion, or 20 μg for 10× heparanase digestion).
# High performance liquid chromatography (HPLC) analysis was conducted with a strong anion exchange column (Propac™ PA1 column, 10 μm, 9 mm×250 mm, Thermo Fisher, Waltham, MA) using a Shimadzu Prominence UFLC20A system (Shimadzu Corporation, Columbia, MD) with a UV detector set at 310 nm. A linear gradient was used for analytical purposes and included a solvent A: 20 mM NaAcO (pH 5.0); and solvent B: 2 M NaCl with 20 mM NaAcO (pH 5.0): 0-3 min: 0-80% B, 3.1-23 min: 80-100% B at a flow rate of 2 mL/min. A total of 5-10 μg of oligosaccharides was injected per run.
# LC-MS/MS analysis of heparanse digested oligosaccharides was implemented on a Vanquish Flex UHPLC system (Thermo Fisher, Waltham, MA) coupled with a TSQ Fortis triple-quadrupole mass spectrometer. The ACQUITY Glycan BEH Amide column ([…], 2.1×150 mm; Waters) was used at 60° C. The mobile phase A was 50 mM ammonium formate in water (pH 4.4) and mobile phase B was acetonitrile. […]
# bovine FXa = biological target: T3, bovine FXa; assay: ACTICHROME heparin activity assay, FXa inhibition with human antithrombin; assay type: biochemical; details: ACTICHROME kit, read-out: FXa activity, calculated 50% inhibitory concentration (IC50) (converted)
# T3 construct: purchased BioMedica Diagnostics
# Method: Data shown as mean standard deviation. Briefly, varying concentrations of HR 7-mer, enoxaparin, and fondaparinux were prepared in phosphate-buffered saline (PBS). A total of 5 microliters (μL) of each sample was added to each well, followed by the addition of 40 μL of human antithrombin for 2 minutes (min) at 37 degrees Celsius (° C.). A total of 40 μL of bovine FXa stock solution was then added and incubated for 1 min at 37° C., followed by the addition of 40 μL of chromogenic substrate sold under the tradename SPECTROZYME® FXa (BioMedica Diagnostics, Windsor, Canada). After a 5 min incubation period at 37° C., the reaction was terminated by the addition of 40 μL of glacial acetic acid. Absorbance was measured at 405 nanometers (nm) and results presented as percent inhibition of FXa activity.
# [1] = system: non-occlusive venous thrombosis; assay: Murine model of non-occlusive venous thrombosis (electrolytic injury of the inferior vena cava); assay type: in vivo, C57BL/6 mice
# Method: Heparin-based drug efficacy was evaluated in a preclinical mouse model of non-occlusive venous thrombosis (46). HR 7-mer was administered subcutaneously (12 μg/g, n=5) to male C57BL/6 mice (8-12 weeks of age) 1 hour prior to electrolytic injury and 24 hours after injury. Enoxaparin was administered subcutaneously (4 μg/g, n=5) 4 hours prior and 24 hours after electrolytic injury as a clinically relevant reference and an additional control group enrolled with saline vehicle administered subcutaneously (n=6). […] Venous side branches were ligated or cauterized, while posterior branches were left patent. A 25-gauge stainless steel needle, attached to a silver-coated copper wire was inserted into the exposed caudal vena cava and positioned against the anterior wall (anode). A second wire was implanted subcutaneously to complete the circuit (cathode) and a 250 μAmps current applied for 15 min. Subsequently, the needle was removed and a cotton swab held in gentle contact with the puncture site to prevent bleeding. The vena cava and associated thrombus, immediately below the renal veins to just above the bifurcation, was excised 48 hours after injury for determination of wet thrombus weight.
# tail vein bleeding = assay: Tail vein transection bleeding time; assay type: in vivo, C57BL/6 mice
# Method: The effect of test drug on bleeding time was assessed in a murine tail vein transection model (46). Sterile saline (n=5), HR 7-mer (12 μg/g, n=5) or enoxaparin (4 μg/g, n=7) was administered subcutaneously. Mice were anesthetized with ketamine and xylazine by intraperitoneal injection and placed on a warming mat at 37° C. Either 1 hour or 4 hours after administration of HR 7-mer or enoxaparin, respectively, the lateral tail vein was transected with a number 11 scalpel blade at a tail width of 2.3 mm and immediately submerged in PBS at 37° C. The bleeding time was determined at that instant when bleeding had ceased for 30 seconds. Animals were excluded if arterial bleeding was present.
# T1 sequence (P01008 33-464): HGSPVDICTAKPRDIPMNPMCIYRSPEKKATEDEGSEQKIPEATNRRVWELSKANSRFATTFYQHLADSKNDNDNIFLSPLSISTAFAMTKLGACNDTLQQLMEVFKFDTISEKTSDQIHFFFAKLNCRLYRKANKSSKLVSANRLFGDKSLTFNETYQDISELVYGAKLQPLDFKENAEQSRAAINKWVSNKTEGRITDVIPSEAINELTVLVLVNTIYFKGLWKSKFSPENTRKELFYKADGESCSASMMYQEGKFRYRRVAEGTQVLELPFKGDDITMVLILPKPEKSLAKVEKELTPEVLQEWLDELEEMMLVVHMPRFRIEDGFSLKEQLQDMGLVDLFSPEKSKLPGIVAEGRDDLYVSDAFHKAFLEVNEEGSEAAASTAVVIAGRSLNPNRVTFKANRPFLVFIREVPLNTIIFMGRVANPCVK
# T3 sequence (P01008 33-464): as above
anti-FXa activity after incubation with heparanase (Human FXa (Homo sapiens)),IC50 (Human FXa (Homo sapiens)),IC50 (bovine FXa),"bleeding time (tail vein bleeding; enoxaparin 4 μg/g SC, 4 hours, HR 7-mer 12 μg/g SC, 1 hour, saline vehicle 81±3 sec)","Avg. bleeding time (tail vein bleeding; enoxaparin 4 μg/g, 4 hr pre, SC, HR 7-mer 12 μg/g, 1 hr pre)",Structure (SMILES),"susceptibility to heparanase mediated degradation (HPLC, LC-MS) (Recombinant heparanase)","reduction in thrombus formation as compared to saline vehicle ([1]; 48 hours after injury, HR 7-mer 12 μg/g SC 1 hour prior and 24 hours after, enoxaparin 4 μg/g SC 4 hours prior and 24 hours after)","Avg. IVC weight ([1]; wet thrombus weight 48 hours after injury, enoxaparin 4 μg/g, 4 hr pre, SC, HR 7-mer 12 μg/g, 1 hr pre, SC)"
completely lost,21.2 nM and 21 nM,–,–,–,"O=C(O)C1OC(OC2C(COS(=O)(=O)O)OC(OC3C(C(=O)O)OC(OC4C(COS(=O)(=O)O)OC(OC5C(C(=O)O)OC(Oc6ccc([N+](=O)[O-])cc6)C(O)C5O)C(NS(=O)(=O)O)C4O)C(OS(=O)(=O)O)C3O)C(NS(=O)(=O)O)C2OS(=O)(=O)O)C(O)C(O)C1OC1OC(COS(=O)(=O)O)C(O)C(O)C1NS(=O)(=O)O (stereo not drawn) [HS 6-mer, reference compound]",cleavage of the -[GlcA-GlcNS3S6S]- disaccharide to afford a tetrasaccharide (4-mer-D),–,–
–,95.7 nM and 96 nM,3870 nM,143 ± 18 s,143 ± 18 s,O=C(O)C1OC(OC2C(COS(=O)(=O)O)OC(OC3C(C(=O)O)OC(OC4C(COS(=O)(=O)O)OC(OC5C(C(=O)O)OC(OC6C(COS(=O)(=O)O)OC(OC7C(C(=O)O)OC(Oc8ccc([N+](=O)[O-])cc8)C(O)C7O)C(NS(=O)(=O)O)C6O)C(OS(=O)(=O)O)C5O)C(NS(=O)(=O)O)C4OS(=O)(=O)O)C(OS(=O)(=O)O)C3O)C(NS(=O)(=O)O)C2O)C(O)C(O)C1O (stereo not drawn) [HR 7-mer],loss of GlcA,40.3±3.9%,18.8 ± 1.2 mg
preservation of anti-FXa activity,193 nM,–,–,–,O=C(O)C1OC(Oc2ccc([N+](=O)[O-])cc2)C(O)C(O)C1OC1OC(COS(=O)(=O)O)C(OC2OC(C(=O)O)C(OC3OC(COS(=O)(=O)O)C(OC4OC(C(=O)O)C(OC5OC(COS(=O)(=O)O)C(O)C(O)C5NS(=O)(=O)O)C(O)C4OS(=O)(=O)O)C(OS(=O)(=O)O)C3NS(=O)(=O)O)C(O)C2OS(=O)(=O)O)C(O)C1NS(=O)(=O)O (stereo not drawn) [Compound 6-mer-D],–,–,–
